Experimental findings from a melting point compilation (Tetko et al.; mined from patent text by program, amines drawn as free bases though some values may be those of a salt) are described below.

In general, melting point refers to the temperature of the solid-liquid transition.

The compound `Cc1c(-c2ccccc2)c(C2=CC(N(C)C)CC2)c2oc(C3CC3)nc2c1C#N` (configuration not stated) registered a melting point of 144 to 146 °C.

Regarding `OC(Cn1cncn1)(c1ccc(Cl)cn1)c1ccc(Cl)cn1`, the melting point lay in the range of 98 to 100 °C.

`COc1ccc2c(-c3ccccc3)c([N+](=O)[O-])oc2c1` yielded a melting point of 100 to 106 °C.

Consider `CC[C@H]1CNC[C@H]1NC(=O)OC(C)(C)C`, for which the melting point lay in the range of 63.5 to 65.5 °C.

`CS(=O)c1nc2ccc(C(F)(F)F)cc2[nH]1` (configuration not stated) registered a melting point of 135 °C.

As for `COC(=O)Nc1nc2cc(S(=O)CC3(C)CC3(Cl)Cl)ccc2[nH]1` (configuration not stated), the melting point fell in the range of 231 to 233 °C.

In the case of `c1cnc(N2CCN(Cc3ccc4c(c3)Cc3c(-c5ccsc5)n[nH]c3-4)CC2)nc1`, the melting point was in the range of 245 to 247 °C.

In turn, `N#CC(Cl)Cc1ccc([N+](=O)[O-])cc1` (configuration not stated) came in with a melting point of 112 °C.

Compound `CCC1c2ncn(CC)c2CCN1C(=S)NC(C)C` (configuration not stated) yielded a melting point of 196 °C.

`N#CCSC(=S)SCCc1ccccc1` had a melting point of 72 to 73 °C.

Compound `Cn1cnc2c(=S)[nH]ccc21` gave a melting point above 300 °C.

Compound `O=C1c2cc(OCc3ccccc3)ccc2OCCC1Oc1ccccc1` (configuration not stated) gave a melting point of 112 to 114 °C.

As for `Cc1oc2c(Br)cccc2c1C`, the melting point stood at 33 °C.

For the compound `CCOc1ccc(C2=CC(C)(C)Oc3c(OCC)cc(Cc4cnc(N)nc4N)cc32)cc1`, the melting point was in the range of 186 to 188 °C.

`CCOC(=O)c1c(C)nc(-c2ccccc2)nc1-c1ccc(OC(C)=O)c([N+](=O)[O-])c1` displayed a melting point of 147 to 148 °C.

Take `COc1ccccc1C(O)(c1ccc(C(C)C)cc1)C(C)C` (configuration not stated): the melting point lay within 85 to 86 °C.

`CCCC1Sc2nncn2N=C1c1ccc2c(c1)NC(=O)CO2` (configuration not stated) gave a melting point of 235 to 237 °C.

For `Cc1ccc(N)c(Cl)c1C#N`, the melting point was in the range of 117 to 119 °C.

In the case of `CCOC(=O)c1ncn2c1CN=C(c1ccccc1)c1cc(C#CC(C)(C)C)ccc1-2`, the melting point fell in the range of 155 to 156 °C.

For `CC(COc1ccc(-c2ccc(C#N)cc2)cc1)N(O)C=O` (configuration not stated), the melting point lay in the range of 141 to 144 °C.

`O=C1COc2ccc(C3=Nn4cnnc4SC3c3ccccn3)cc2N1` (configuration not stated) showed a melting point of 216 to 218 °C.

`Cc1cccc(COc2cccc(OCc3ccc4ccc(Cl)cc4n3)c2)c1C(=O)O` registered a melting point of 188 to 193 °C.

As for `N#CCCn1nc(-c2ccc(OCc3ccccc3)cc2)sc1=O`, the melting point was found to be 135 °C.

`CCOC(=O)C1(C(=O)N(Cc2ccccc2)Cc2ccccc2)CC(=O)N(C(C)c2ccccc2)C1` (configuration not stated) came in with a melting point of 135 to 137 °C.

The compound `CC(C)NC(=O)N1CCc2[nH]cnc2C1C(C)C` (configuration not stated) returned a melting point of 202 °C.

For `Cc1cc(Cl)cc(C(=NCCC(=O)O)c2ccc(Cl)cc2)c1O`, the melting point is 138 °C.

In the case of `O=C(O)CC(NS(=O)(=O)c1ccc2ccccc2c1)c1ccc2c(c1)OCO2` (configuration not stated), the melting point lay in the range of 173 to 175 °C.

As for `N#Cc1cc(C#N)c(SC2SCC(O)C(O)C2O)c(C#N)c1` (configuration not stated), the melting point fell in the range of 86 to 96 °C.

Consider `COc1ccc(C=C(C#N)c2ccc(F)cc2)cc1OC1CCCC1`, for which the melting point lay in the range of 139 to 141 °C.

Consider `CCc1ccc2ccc(=O)[nH]c2n1`, for which the melting point is 133 to 134 °C.

With `COC(=O)[C@H](Cc1ccc(NC(=O)c2c(Cl)cccc2Cl)cc1)NC(=S)C1(CCCSC)CCC1`, the melting point fell in the range of 184 to 186 °C.

In turn, `O=c1[nH]c2cc(O)ccc2c2oc3ccccc3c12` gave a melting point above 300 °C.

With `CSc1ccc(-c2coc3ccc(-c4nnc(C)o4)cc23)cc1`, the melting point was in the range of 173 to 174 °C.

Compound `O=C1C2=C(CCCC2)C(=O)N1c1cc(O)ccc1F` displayed a melting point of 165 °C.

Take `COc1ccc(C(=O)NCCCCCCCNC(=O)c2ccc(OC)cc2)cc1`: the melting point fell in the range of 157 to 159 °C.

`Nc1nc2c(Cl)cc(F)c(-c3ncc(C(F)(F)F)cc3Cl)c2s1` yielded a melting point of 230 to 235 °C.

In turn, `COc1ccc2ccc(-c3ccccc3)cc2c1` had a melting point of 65.4 to 66.3 °C.
